{"source": "PubChem BioAssay AID1259407", "about": "(Chemical Carcinogenesis Research Information System (CCRIS), 2018)", "tested_on": "CCRIS mutagenicity, Ames/micronucleus/aberration tests", "experiment": "CCRIS mutagenicity studies", "note": "The source made the active and inactive calls. How the calls were made is not given here.", "data": [{"smiles": "Oc1ccccc1", "values": [{"measurement": "mutagenic call", "setting": "End Point: IN VITRO CHROMOSOMAL ABERRATIONS, Test System: CHO CELLS, Metabolic Activation: NONE", "value": "inactive; negative"}, {"measurement": "mutagenic call", "setting": "End Point: IN VITRO CHROMOSOMAL ABERRATIONS, Test System: CHO CELLS, Metabolic Activation: RAT, LIVER, S-9, AROCLOR 1254", "value": "active; positive"}, {"measurement": "mutagenic call", "setting": "End Point: IN VITRO CHROMOSOMAL ABERRATIONS, Test System: V79 CELLS, Metabolic Activation: NONE", "value": "inactive; negative; effect more pronounced at ph 8 but no significant increase"}, {"measurement": "mutagenic call", "setting": "End Point: IN VITRO MICRONUCLEUS, Test System: CHINESE HAMSTER OVARY (CHO-K5), Metabolic Activation: NONE", "value": "active; positive; no statistical analysis was performed"}, {"measurement": "mutagenic call", "setting": "End Point: IN VITRO MICRONUCLEUS, Test System: CHINESE HAMSTER OVARY (CHO-K5), Metabolic Activation: RAT, LIVER, S-9, PHENOBARBITAL AND BETA-NAPHTHOFLAVONE", "value": "active; positive"}, {"measurement": "mutagenic call", "setting": "End Point: IN VITRO MICRONUCLEUS, Test System: CHL/IU CELLS, Metabolic Activation: RAT, LIVER, S-9, PHENOBARBITAL AND 5,6-BENZOFLAVONE", "value": "active; positive"}, {"measurement": "mutagenic call", "setting": "End Point: IN VITRO MICRONUCLEUS, Test System: CHO CELLS, Metabolic Activation: RAT, LIVER, S-9, AROCLOR 1254", "value": "active; positive"}, {"measurement": "mutagenic call", "setting": "End Point: In vivo micronucleus, Test System: Bone marrow cells, Species: Mouse, Strain/Sex: CD1/Female, Route: Intraperitoneal", "value": "active; positive (highest dose only)"}, {"measurement": "mutagenic call", "setting": "End Point: In vivo micronucleus, Test System: Bone marrow cells, Species: Mouse, Strain/Sex: CD1/Male, Route: Intraperitoneal", "value": "active; positive (highest dose only)"}, {"measurement": "mutagenic call", "setting": "Test System: AMES SALMONELLA TYPHIMURIUM, Strain/Indicator: TA97, Metabolic Activation: NONE, Method: PREINCUBATION", "value": "inactive; negative"}, {"measurement": "mutagenic call", "setting": "Test System: AMES SALMONELLA TYPHIMURIUM, Strain/Indicator: TA97, Metabolic Activation: RAT, LIVER, S-9, AROCLOR 1254, Method: PREINCUBATION", "value": "inactive; negative"}, {"measurement": "mutagenic call", "setting": "Test System: AMES SALMONELLA TYPHIMURIUM, Strain/Indicator: TA98, Metabolic Activation: NONE, Method: FLUCTUATION (MICROTITER)", "value": "inactive; negative"}, {"measurement": "mutagenic call", "setting": "Test System: AMES SALMONELLA TYPHIMURIUM, Strain/Indicator: TA98, Metabolic Activation: NONE, Method: PREINCUBATION", "value": "inactive; negative"}, {"measurement": "mutagenic call", "setting": "Test System: AMES SALMONELLA TYPHIMURIUM, Strain/Indicator: TA98, Metabolic Activation: RAT LIVER S-9, AROCLOR 1254, Method: FLUCTUATION (MICROTITER)", "value": "inactive; negative"}, {"measurement": "mutagenic call", "setting": "Test System: AMES SALMONELLA TYPHIMURIUM, Strain/Indicator: TA98, Metabolic Activation: RAT LIVER S-9, PHENOBARBITAL AND BETA-NAPHTHOFLAVONE, Method: PREINCUBATION", "value": "inactive; negative"}, {"measurement": "mutagenic call", "setting": "Test System: AMES SALMONELLA TYPHIMURIUM, Strain/Indicator: TA98, Metabolic Activation: RAT, LIVER, S-9, AROCLOR 1254, Method: PREINCUBATION", "value": "inactive; negative"}, {"measurement": "mutagenic call", "setting": "Test System: AMES SALMONELLA TYPHIMURIUM, Strain/Indicator: TA98, Metabolic Activation: RAT, LIVER, S-9, AROCLOR 1254, Method: STANDARD PLATE", "value": "inactive; negative"}, {"measurement": "mutagenic call", "setting": "Test System: AMES SALMONELLA TYPHIMURIUM, Strain/Indicator: TA100, Metabolic Activation: NONE, Method: FLUCTUATION TEST", "value": "inactive; negative"}, {"measurement": "mutagenic call", "setting": "Test System: AMES SALMONELLA TYPHIMURIUM, Strain/Indicator: TA100, Metabolic Activation: NONE, Method: PREINCUBATION", "value": "inactive; negative"}, {"measurement": "mutagenic call", "setting": "Test System: AMES SALMONELLA TYPHIMURIUM, Strain/Indicator: TA100, Metabolic Activation: RAT LIVER S-9, PHENOBARBITAL AND BETA-NAPHTHOFLAVONE, Method: PREINCUBATION", "value": "inactive; negative"}, {"measurement": "mutagenic call", "setting": "Test System: AMES SALMONELLA TYPHIMURIUM, Strain/Indicator: TA100, Metabolic Activation: RAT, LIVER, S-9, AROCLOR 1254, Method: PREINCUBATION", "value": "inactive; negative"}, {"measurement": "mutagenic call", "setting": "Test System: AMES SALMONELLA TYPHIMURIUM, Strain/Indicator: TA100, Metabolic Activation: RAT, LIVER, S-9, PCB, Method: FLUCTUATION TEST", "value": "active; positive"}, {"measurement": "mutagenic call", "setting": "Test System: AMES SALMONELLA TYPHIMURIUM, Strain/Indicator: TA102, Metabolic Activation: NONE, Method: PREINCUBATION", "value": "inactive; negative"}, {"measurement": "mutagenic call", "setting": "Test System: AMES SALMONELLA TYPHIMURIUM, Strain/Indicator: TA102, Metabolic Activation: RAT, LIVER, S-9, AROCLOR 1254, Method: PREINCUBATION", "value": "inactive; negative"}, {"measurement": "mutagenic call", "setting": "Test System: AMES SALMONELLA TYPHIMURIUM, Strain/Indicator: TA104, Metabolic Activation: NONE, Method: PREINCUBATION", "value": "inactive; negative"}, {"measurement": "mutagenic call", "setting": "Test System: AMES SALMONELLA TYPHIMURIUM, Strain/Indicator: TA104, Metabolic Activation: RAT, LIVER, S-9, AROCLOR 1254, Method: PREINCUBATION", "value": "inactive; negative"}, {"measurement": "mutagenic call", "setting": "Test System: AMES SALMONELLA TYPHIMURIUM, Strain/Indicator: TA1535, Metabolic Activation: NONE, Method: PREINCUBATION", "value": "inactive; negative"}, {"measurement": "mutagenic call", "setting": "Test System: AMES SALMONELLA TYPHIMURIUM, Strain/Indicator: TA1535, Metabolic Activation: RAT LIVER S-9, PHENOBARBITAL AND BETA-NAPHTHOFLAVONE, Method: PREINCUBATION", "value": "inactive; negative"}, {"measurement": "mutagenic call", "setting": "Test System: AMES SALMONELLA TYPHIMURIUM, Strain/Indicator: TA1535, Metabolic Activation: RAT, LIVER, S-9, AROCLOR 1254, Method: PREINCUBATION", "value": "inactive; negative"}, {"measurement": "mutagenic call", "setting": "Test System: AMES SALMONELLA TYPHIMURIUM, Strain/Indicator: TA1535, Metabolic Activation: RAT, LIVER, S-9, AROCLOR 1254, Method: STANDARD PLATE", "value": "inactive; negative"}, {"measurement": "mutagenic call", "setting": "Test System: AMES SALMONELLA TYPHIMURIUM, Strain/Indicator: TA1537, Metabolic Activation: NONE, Method: FLUCTUATION (MICROTITER)", "value": "inactive; negative"}, {"measurement": "mutagenic call", "setting": "Test System: AMES SALMONELLA TYPHIMURIUM, Strain/Indicator: TA1537, Metabolic Activation: NONE, Method: PREINCUBATION", "value": "inactive; negative"}, {"measurement": "mutagenic call", "setting": "Test System: AMES SALMONELLA TYPHIMURIUM, Strain/Indicator: TA1537, Metabolic Activation: RAT LIVER S-9, AROCLOR 1254, Method: FLUCTUATION (MICROTITER)", "value": "inactive; negative"}, {"measurement": "mutagenic call", "setting": "Test System: AMES SALMONELLA TYPHIMURIUM, Strain/Indicator: TA1537, Metabolic Activation: RAT LIVER S-9, PHENOBARBITAL AND BETA-NAPHTHOFLAVONE, Method: PREINCUBATION", "value": "inactive; negative"}, {"measurement": "mutagenic call", "setting": "Test System: AMES SALMONELLA TYPHIMURIUM, Strain/Indicator: TA7001, Metabolic Activation: NONE, Method: FLUCTUATION (MICROTITER)", "value": "inactive; negative"}, {"measurement": "mutagenic call", "setting": "Test System: AMES SALMONELLA TYPHIMURIUM, Strain/Indicator: TA7001, Metabolic Activation: RAT LIVER S-9, AROCLOR 1254, Method: FLUCTUATION (MICROTITER)", "value": "inactive; negative"}, {"measurement": "mutagenic call", "setting": "Test System: AMES SALMONELLA TYPHIMURIUM, Strain/Indicator: TA7002, Metabolic Activation: NONE, Method: FLUCTUATION (MICROTITER)", "value": "inactive; negative"}, {"measurement": "mutagenic call", "setting": "Test System: AMES SALMONELLA TYPHIMURIUM, Strain/Indicator: TA7002, Metabolic Activation: RAT LIVER S-9, AROCLOR 1254, Method: FLUCTUATION (MICROTITER)", "value": "inactive; negative"}, {"measurement": "mutagenic call", "setting": "Test System: AMES SALMONELLA TYPHIMURIUM, Strain/Indicator: TA7003, Metabolic Activation: NONE, Method: FLUCTUATION (MICROTITER)", "value": "inactive; negative"}, {"measurement": "mutagenic call", "setting": "Test System: AMES SALMONELLA TYPHIMURIUM, Strain/Indicator: TA7003, Metabolic Activation: RAT LIVER S-9, AROCLOR 1254, Method: FLUCTUATION (MICROTITER)", "value": "inactive; negative"}, {"measurement": "mutagenic call", "setting": "Test System: AMES SALMONELLA TYPHIMURIUM, Strain/Indicator: TA7004, Metabolic Activation: NONE, Method: FLUCTUATION (MICROTITER)", "value": "inactive; negative"}, {"measurement": "mutagenic call", "setting": "Test System: AMES SALMONELLA TYPHIMURIUM, Strain/Indicator: TA7004, Metabolic Activation: RAT LIVER S-9, AROCLOR 1254, Method: FLUCTUATION (MICROTITER)", "value": "inactive; negative"}, {"measurement": "mutagenic call", "setting": "Test System: AMES SALMONELLA TYPHIMURIUM, Strain/Indicator: TA7005, Metabolic Activation: NONE, Method: FLUCTUATION (MICROTITER)", "value": "inactive; negative"}, {"measurement": "mutagenic call", "setting": "Test System: AMES SALMONELLA TYPHIMURIUM, Strain/Indicator: TA7005, Metabolic Activation: RAT LIVER S-9, AROCLOR 1254, Method: FLUCTUATION (MICROTITER)", "value": "inactive; negative"}, {"measurement": "mutagenic call", "setting": "Test System: AMES SALMONELLA TYPHIMURIUM, Strain/Indicator: TA7006, Metabolic Activation: NONE, Method: FLUCTUATION (MICROTITER)", "value": "inactive; negative"}, {"measurement": "mutagenic call", "setting": "Test System: AMES SALMONELLA TYPHIMURIUM, Strain/Indicator: TA7006, Metabolic Activation: RAT LIVER S-9, AROCLOR 1254, Method: FLUCTUATION (MICROTITER)", "value": "inactive; negative"}, {"measurement": "mutagenic call", "setting": "Test System: CHINESE HAMSTER V-79, Strain/Indicator: V-79/6-THIOGUANINE, Metabolic Activation: NONE", "value": "inactive; negative"}, {"measurement": "mutagenic call", "setting": "Test System: E.COLI, Strain/Indicator: WP2UVRA, Metabolic Activation: NONE, Method: PREINCUBATION", "value": "inactive; negative"}, {"measurement": "mutagenic call", "setting": "Test System: E.COLI, Strain/Indicator: WP2UVRA, Metabolic Activation: RAT LIVER S-9, PHENOBARBITAL AND BETA-NAPHTHOFLAVONE, Method: PREINCUBATION", "value": "inactive; negative"}, {"measurement": "mutagenic call", "setting": "Test System: MOUSE LYMPHOMA, Strain/Indicator: L5178Y (TK+/TK-), Metabolic Activation: NONE, Method: SUSPENSION/PLATE", "value": "active; positive"}, {"measurement": "mutagenic call", "setting": "Test System: MOUSE LYMPHOMA, Strain/Indicator: L5178Y (TK+/TK-), Metabolic Activation: RAT, LIVER, S-9, AROCLOR 1254, Method: SUSPENSION/PLATE", "value": "active; positive"}, {"measurement": "mutagenic call", "setting": "Test System: UDS SHE CELLS, Strain/Indicator: THY INCORP, Metabolic Activation: NONE, Method: LIQUID SCINTILLATION COUNTING", "value": "active; positive"}]}]}
